Experiments:
in vivo = conditions: SD, rat, po, 1 g/kg
Procedure: In this test six-week old SPF SD rats were used with two rats assigned to each group. […] The dosing volume was 10 ml/kg. […] All survivors at the end of the observation period underwent laparotomy under ether anesthesia and the blood samples were taken from the abdominal aorta for hematological tests and biochemical analysis. After sacrificing the animals, autopsy was performed for macroscopic observation of the organs and tissues. Tissue samples of vital organs from macroscopic legion were removed and fixed in 10% neutral buffered formalin solution, then processed by standard procedures for histopathology and examined under light microscope.

[1] = system: cerebral cortical neurons; assay: Protective activity for neuronal cells against iron-induced damage (LDH release); assay type: cell-based, rat; conditions: 30 μM compound; 50 uM FeSO4, 24 hours; LDH reduction rate vs control
Procedure: From the brains of 17-18 day-old rat embryos, cerebral cortical neurons were isolated and then, cultured at 37° C. for 7-9 days in a 5% CO2 incubator. The cortical cell cultures were washed twice with a minimum essential medium (MEM) to reduce the serum concentration to 0.2% and pre-treated for 30 min with 30 μM of each of test compounds. For the experiments, the test compounds were dissolved in DMSO and diluted in a medium. At this time, the final concentration of DMSO was not allowed to exceed 0.2%. For a control group, only vehicle was applied.
After the pre-treatment with test compounds or vehicle, FeSO4 was added to a final concentration of 50 uM, and the cultures were maintained for 24 hours in a CO2 incubator. During incubation, lactate dehydrogenase (LDH) was released into the medium upon neuronal death by the oxidative toxicity of iron. The extent of neuronal damage was assessed by measuring the amount of LDH released into the media. The protective effect of the compounds of interest on neurons was evaluated by calculating the LDH reduction rate of treatment group compared with that of the control group.

isolated rat hearts = assay: Cardioprotective activity in isolated ischemic heart models of rats (Langendorff, global ischemia/reperfusion); conditions: 10 μM; for LDH (U/g): cumulative reperfusion LDH release; for EDP (MmHg): left ventricular end-diastolic pressure after 30 min reperfusion; for LDVP × HR (%): reperfusion double product as % of pretreatment DP, 30 min global ischemia, 30 min reperfusion; for TTC: time to contracture during global ischemia
Procedure: Male Sprague-Dawley rats weighing 300-450 g were anesthetized with sodium pentobarbital (100 mg/kg, i.p.). The tail vein was injected with heparin (1,000 U/kg) and then the trachea was intubated. […] A latex balloon filled with solvent (ethanol: water=1:1 (v/v)) and attached to a metal cannula was placed in the left ventricle through pulmonary vein and connected to a Isotec pressure transducer (H.S.E., Germany) for measurement of left ventricular pressure (LVP). […] Then, baseline contractile function, heart rate (HR), and coronary flow (CF) (extracorporeal electromagnetic flow probe, Narco Bio-System, U.S.A.) were measured. Cardiac contractile function was calculated by subtracting LVEDP from LV peak systolic pressure (LVSP), yielding developed pressure (LVDP). Double product (DP), another important parameter for assessing cardiac performance, was calculated by multiplying HR by LVDP. Throughout the experiment, all these parameters were measured, and calculated before and 10 min after pretreatment with each compound and 30 min after the onset of reperfusion with buffer. Data on reperfusion DP were further expressed as the percentage to pretreatment DP.
We then rendered the hearts globally ischemic by completely shutting off the perfusate for 30 min. Severity of ischemia was determined as the time to contracture (TTC, min) during global ischemia in which the first 5 mmHg increase in EDP was observed. Then, the hearts were reperfused and, 30 min later, contractile function (LVDP, DP) and cumulative reperfusion lactate dehydrogenase (LDH) release were measured. LDH was measured as a sensitive index for loss of cell viability with a kit supplied by Boerhinger Mannheim based on the technique of Wroblewski and LaDue [F. Wroblewski and JS.

[2] = system: ischemic myocardium damage model of anesthetized rats; assay: Cardioprotective activity in ischemic heart models of rats (LAD occlusion/reperfusion, anesthetized rats); assay type: in vivo, rat; conditions: rat in vivo, 0.3 mg/kg i.v.; for AAR/LV (%): area at risk per left ventricle; for IZ/AAR (%): myocardial infarction rate to area at risk, 45 min occlusion, 90 min reperfusion
Procedure: After trachetomy, the rats were rendered to respire artificially at a rate of 60/min with a stroke volume of 10 ml/kg. Cannulars were inserted into the fermoral vein and the fermoral artery and used for drug administration and blood pressure measurement, respectively.
In the ischemic myocardial injury models, the body temperature has an important influence on the results. To avoid the change in the body temperature, a body temperature measuring probe was inserted into the rectum of each rat and the body temperature was constantly kept at 37° C. with the aid of a homeothermic blanket control unit.
Afterwards, during testing, a continuous measurement was made of the mean arterial blood pressures and heart rates from the rats. For the measurement of the blood pressure, a pressure transducer, such as that manufactured by Grass Ins., MA, U.S.A., identified as Model Statham P23XL, was used.
The heart rate was measured by a tachometer, such as that manufactured by Gould Inc., Ohio, U.S.A., identified as Biotachometer. In addition, all of the changes occurring were continuously recorded through the Gould 2000 chart recorder, manufactured by Gould Inc.
The left coronary artery was occluded according to the Selye H. method as follows. The rats underwent a left thoracotomy operation for partial opening of the chest and the right-side chest was pressurized by the middle finger of the left hand to push the heart out. Immediately after the left anterior descending coronary artery hereinafter referred to as (LAD) was carefully stitched using a suture needle with 5-0 silk ligature, the heart was then repositioned in the thoracic cavity while both ends of the ligature were situated outside. The opposite ligature ends were passed through a PE tube (PE100, 2.5 cm) and allowed to stand loose for 20 min for stabilization. Via the cannula inserted into the femoral vein, vehicles or drugs were administered into the rats which were rendered to stand for 30 min in order to sufficiently elicit the efficacies of the drugs.
Next, the PE tube which had the doubled strands of the ligature passed therethrough was pushed toward the heart and then, set upright by tightly pulling end regions of the ligature with a hemostatic pincette while pressing the coronary artery.
After the reocclusion of the coronary artery in accordance with the above procedure, the rats were administered with 2 ml of a 1% Evans blue through an intravenous route. Subsequently, an excess of pentobarbital was intravenously injected to kill the rats, after which the heat was removed and then, deprived of the right ventricle and both atria. The left ventricle was cut horizontally to the heart apex into 5 or 6 slices which were weighed. From the surface of each slice, images were input with the aid of a Hi-scope into a computer installed with an image analyzing program (Image Pro Plus). From the images input into the computer, the area of the normal blood stream tissue region which appeared blue in a computer monitor and the area which appeared colorless were measured. The percentage of the colorless area to the total area of each slice was calculated and multiplied by the weight of each slice to determine the area at risk (AAR) of each slice. The AAR obtained from each slice was summed for all slices and the total AAR was divided by the total weight of the left ventricle to yield % AAR, as shown in the following mathematical formula 1:
AAR(%)=(summed AAR for all slices)/(total weight of left ventricle)×100 [Mathematical Formula 1]
During this fixation, 2,3,5-triphenyltetrazolium chloride was reduced into formazan dye by the myocardial dehydrogenase and its cofactor NADH, so that the normal regions of the tissue were colored brick-red. In contrast, the infarct zones of the tissue were deficient in the dehydrogenase and its cofactor, so that no reduction occurred on the 2,3,5-triphenyltetrazolium, allowing the color to remain unchanged.

[3] = system: isolated rat aorta constricted with methoxamine; assay: Vasodilation effects on isolated aorta of rats (methoxamine-constricted rings); conditions: isolated rat aorta constricted with methoxamine (3 μM); 50% relaxation
Source text: Male Sprague-Dawly rats (350-450 g, obtained from the Experimental Animal Team of the Korea Research Institute of Chemical Technology) were knocked unconscious by hitting the occipital region, sacrificed by cervical dislocation, and underwent thoracotomy. After being quickly removed, the thoracic aorta was deprived of the adipose tissue and cut into aortic rings of 3 mm width. The aorta was lightly rubbed with cotton club soaked in a modified Krebs Henseleit buffer (Physiological Salt Solution, PSS) to remove the inner epithelial layer therefrom.
Thereafter, 3×10^−6 M methoxamine was applied to induce an intensive constriction in the vascular smooth muscle. When the vasoconstriction induced by the methoxamine was reached and maintained to a maximum, test compounds and controls were cumulatively added to the organ baths in concentrations of 1, 3, 10 and 30 μM so as to examine the vasodilation effect.
The change rate of constriction by the addition of the drugs compared to the maximal constriction induced by methoxamine was calculated to plot a concentration-relaxation response curve.

Compound	LD50 (in vivo) [mg/kg]	% Protection [1] [%]	LDH (U/g) (isolated rat hearts)	EDP (MmHg) (isolated rat hearts)	LDVP × HR (%) (isolated rat hearts)	TTC (isolated rat hearts) [min]	AAR/LV (%) [2] [%]	IZ/AAR (%) [2] [%]	IC50 [3] [µM]
COC(OC)[C@@]1(C)Oc2ccc([N+](=O)[O-])cc2[C@H](N2c3ccccc3C[C@H]2C(=O)OC(C)C)[C@H]1O [Example 10, 1-[(2S, 3R, 4S)-3,4-dihydro-2-dimethoxymethyl-3-hydroxy-2-methyl-6-nitro-2H-1-benzopyran-4-yl]-(2S)-2,3-dihydro-1H-indole-2-carboxylic acid isopropyl ester]	> 1000	–	–	–	–	–	–	–	–
CCOC(=O)[C@@H]1Cc2ccccc2N1[C@H]1c2cc([N+](=O)[O-])ccc2O[C@](C)(C(OC)OC)[C@@H]1O [Example 2, 1-[(2S, 3R, 4S)-3,4-dihydro-2-dimethoxymethyl-3-hydroxy-2-methyl-6-nitro-2H-1-benzopyran-4-yl]-(2S)-2,3-dihydro-1H-indole-2-carboxylic acid ethyl ester]	> 1000	79	17.8	25.7	55.1	22.6	32.6	39.1	24.3
CCCOC(=O)[C@H]1Cc2ccccc2N1[C@@H]1c2cc([N+](=O)[O-])ccc2O[C@@](C)(C(OC)OC)[C@H]1O [Example 34, 1[-(2R, 3S, 4R)-3,4-dihydro-2-dimethoxymethyl-3-hydroxy-2-methyl-6-nitro-2H-1-benzopyran-4-yl]-(2R)-2,3-dihydro-1H-indole-2-carboxylic acid n-propyl ester]	> 1000	–	–	–	–	–	–	–	–
CCOC(=O)[C@H]1Cc2ccccc2N1[C@@H]1c2cc([N+](=O)[O-])ccc2O[C@@](C)(C(OC)OC)[C@H]1O [Example 30, 1-[(2R, 3S, 4R)-3,4-dihydro-2-dimethoxymethyl-3-hydroxy-2-methyl-6-nitro-2H-1-benzopyran-4-yl]-(2R)-2,3-dihydro-1H-indole-2-carboxylic acid ethyl ester]	> 1000	–	9.2	11.3	64.1	27.1	33.6	38.9	> 30

— patent US6413983B1, “Benzopyranyl heterocycle derivatives, process for preparation thereof, and pharmaceutical compositions containing them” (Dongbu Hannong Chemical Co. Ltd., priority 2000, dated 2002)
